The subject of experiment [1] is influenza A virus (A/PR/8/34). The experiment can be described thus: microbe, parasite or virus in culture. The experiment is classed as cell-based.
Experiment [2] relates to A/PR/8/34 influenza virus. The experiment in a line: microbe, parasite or virus in culture. The experiment is classed as cell-based.
The mark [3] stands for this setting: Influenza A virus, PR/8, MDCK, CPE assay, A/PR/8/34 infected MDCK cells, class symbols, read-out: IC50 (mean all).
[4] abbreviates: Influenza A virus, PR/8, MDCK, bDNA assay, A/PR/8/34 influenza virus replication in MDCK cells, class symbols, read-out: EC50 (mean all).
Setting [5] is: Influenza A virus, PR/8, MDCK, MDCK cells infected with A/PR/8/34, cell protection (CPE), read-out: IC50 (mean all).
Where [6] appears, read: Influenza A virus, PR/8, MDCK, MDCK cells infected with A/PR/8/34, bDNA viral RNA, read-out: EC50 (mean all).
[7] abbreviates: CPE assay, A/PR/8/34 infected MDCK cells, class symbols, read-out: IC50 (mean all).
The mark [8] stands for this setting: bDNA assay, A/PR/8/34 influenza virus replication in MDCK cells, class symbols, read-out: EC50 (mean all).
[9] abbreviates: Influenza A virus, PR/8, MDCK, MDCK cells infected with A/PR/8/34, survival of infected cells, class symbols, read-out: IC50 (mean all).
Setting [10] is: Influenza A virus, PR/8, MDCK, MDCK cells infected with A/PR/8/34, replication of influenza virus (viral RNA, bDNA), class symbols, read-out: EC50 (mean all).
Where [11] appears, read: Influenza A virus, PR/8, MDCK, mean all, A/PR/8/34 infected MDCK cells, CPE assay, read-out: IC50.
Setting [12] is: Influenza A virus, PR/8, MDCK, mean all, A/PR/8/34 influenza virus in MDCK cells, bDNA assay, read-out: EC50.
[13] abbreviates: mean all, MDCK cells infected with A/PR/8/34, cell protection (CPE), read-out: IC50.
Where [14] appears, read: mean all, bDNA viral RNA in MDCK cells infected with A/PR/8/34, read-out: EC50.
The mark [15] stands for this setting: Influenza A virus, PR/8, MDCK, mean all, survival of A/PR/8/34 infected MDCK cells (CPE assay), read-out: IC50.
Setting [16] is: Influenza A virus, PR/8, mean all, replication of A/PR/8/34 influenza virus (bDNA assay), read-out: EC50.

Like-named read-outs stand apart in the source and are kept apart here.

What is called IC50 is the concentration that inhibits the measured activity by half. One may read the EC50 as the concentration needed to bring the measured effect to its halfway point. `N#Cc1cnc(-c2c[nH]c3ncc(Cl)cc23)nc1N[C@H]1CCCN(CC(N)=O)C1` [Compound 654]: in experiment [1] (setting [3]), the IC50 was in the range of 5 to 20 µM. The concentration giving a half-maximal response (EC50) in experiment [2] (setting [4]) was 5 to 10 µM.

Consider `CNC(=O)C[C@]1(O)CCCC(Nc2nc(-c3c[nH]c4ncc(Cl)cc34)ncc2F)C1` (stereo partly drawn) [Compound 751], for which the half-maximal inhibitory concentration (IC50) in experiment [1] (Influenza A virus, PR/8, MDCK, mean all, MDCK cells infected with A/PR/8/34, cell protection (CPE), read-out: IC50) is less than 5 µM. Further, the EC50 in experiment [2] (Influenza A virus, PR/8, MDCK, mean all, bDNA viral RNA in MDCK cells infected with A/PR/8/34, read-out: EC50) is less than 5 µM.

Turning to `O=C(Nc1ccsc1)N1CCC[C@@H](CNc2nc(-c3c[nH]c4ncc(Cl)cc34)ncc2F)C1` [Compound 22, (S)-3-((2-(5-chloro-1H-pyrrolo[2,3-b]pyridin-3-yl)-5-fluoropyrimidin-4-ylamino)methyl)-N-(thiophen-3-yl)piperidine-1-carboxamide], the IC50 in experiment [1] (setting [5]) is less than 5 µM. In addition, the concentration giving a half-maximal response (EC50) in experiment [2] (setting [6]) was less than 5 µM.

Regarding `O[C@@H]1[C@@H](O)CCC[C@H]1Nc1nc(-c2c[nH]c3ncc(Cl)cc23)ncc1F` [Compound 624], the IC50 in experiment [1] (setting [3]) is less than 5 µM. In addition, the concentration giving a half-maximal response (EC50) in experiment [2] (setting [4]) lay in the range of 5 to 10 µM.

Turning to `O=C(O)C1CNCCC1Nc1nc(-c2c[nH]c3ncc(Cl)cc23)ncc1F` (stereo not drawn) [Compound 605], in experiment [1] (setting [7]), the IC50 is greater than 10 µM. Further, the EC50 in experiment [2] (setting [8]) was greater than 3.3 µM.

For the compound `O=C(O)[C@@H]1CCC[C@@H]1Nc1nc(-c2c[nH]c3ncc(Cl)cc23)ncc1F` (relative stereo) [Compound 558, Cis-2-(2-(5-chloro-1H-pyrrolo[2,3-b]pyridin-3-yl)-5-fluoropyrimidin-4-ylamino)cyclopentanecarboxylic acid], the IC50 in experiment [1] (setting [9]) was less than 5 µM. In addition, in experiment [2] (setting [10]), the EC50 was less than 5 µM.

For `CCCS(=O)(=O)N1CCCC(Nc2ccnc(-c3c[nH]c4ncc(Cl)cc34)n2)C1` (stereo not drawn) [Compound 464], the half-inhibitory concentration (IC50) in experiment [1] (mean all, A/PR/8/34 infected MDCK cells, CPE assay, read-out: IC50) is less than 5 µM. Besides, the EC50 in experiment [2] (mean all, A/PR/8/34 influenza virus in MDCK cells, bDNA assay, read-out: EC50) is less than 5 µM.

For the compound `CN(C)C(=O)N[C@H]1CCC[C@H](Nc2nc(-c3c[nH]c4ncc(Cl)cc34)ncc2F)C1` (relative stereo) [Compound 459, 3-[trans-3-[[2-(5-chloro-1H-pyrrolo[2,3-b]pyridin-3-yl)-5-fluoro-pyrimidin-4-yl]amino]cyclohexyl]-1,1-dimethyl-urea], in experiment [1] (setting [11]), the IC50 is less than 5 µM. In addition, in experiment [2] (setting [12]), the 50% effective concentration (EC50) is less than 5 µM.

For the compound `CNC(=O)[C@@H]1CCCC[C@@H]1Nc1nc(-c2c[nH]c3ncc(Cl)cc23)ncc1F` (relative stereo) [Compound 539, Cis-2-(2-(5-chloro-1H-pyrrolo[2,3-b]pyridin-3-yl)-5-fluoropyrimidin-4-ylamino)-N-methylcyclohexanecarboxamide], the IC50 in experiment [1] (setting [9]) lay in the range of 5 to 20 µM. Also, the EC50 in experiment [2] (setting [10]) was less than 5 µM.

As for `Cc1ccccc1C(=O)N1CCC[C@H](CNc2nc(-c3c[nH]c4ncc(Cl)cc34)ncc2F)C1` [Compound 143, (R)-(3-((2-(5-chloro-1H-pyrrolo[2,3-b]pyridin-3-yl)-5-fluoropyrimidin-4-ylamino)methyl)piperidin-1-yl)(o-tolyl)methanone], the concentration for half-maximal inhibition (IC50) in experiment [1] (setting [5]) was less than 5 µM. The half-maximal effective concentration (EC50) in experiment [2] (setting [6]) was less than 5 µM.

As to `COC(=O)N[C@@H]1CCC[C@H](Nc2nc(-c3c[nH]c4ncc(Cl)cc34)ncc2F)C1` [Compound 570, methyl N-[(1R,3S)-3-[[2-(5-chloro-1H-pyrrolo[2,3-b]pyridin-3-yl)-5-fluoro-pyrimidin-4-yl]amino]cyclohexyl]carbamate], the IC50 in experiment [1] (setting [9]) is less than 5 µM. In addition, the EC50 in experiment [2] (setting [10]) is less than 5 µM.

On to `O=C(NC1CCCC(Nc2nc(-c3c[nH]c4ncc(Cl)cc34)ncc2F)C1)C1CCC1` (stereo not drawn) [Compound 726], for which the IC50 in experiment [1] (setting [13]) is less than 5 µM. Also, the EC50 in experiment [2] (setting [14]) was less than 5 µM.

Turning to `CC(C)NC(=O)N1CCC[C@@H](CNc2nc(-c3c[nH]c4ncc(Cl)cc34)ncc2F)C1` [Compound 27, (S)-3-((2-(5-chloro-1H-pyrrolo[2,3-b]pyridin-3-yl)-5-fluoropyrimidin-4-ylamino)methyl)-N-isopropylpiperidine-1-carboxamide], in experiment [1] (setting [5]), the IC50 was less than 5 µM. Further, the EC50 in experiment [2] (setting [6]) is less than 5 µM.

In the case of `O[C@@H]1CCCC[C@@H]1Nc1nc(-c2c[nH]c3ncccc23)ncc1F` (relative stereo) [Compound 277, Cis-2-[[5-fluoro-2-(1H-pyrrolo[2,3-b]pyridin-3-yl)pyrimidin-4-yl]amino]cyclohexanol], the IC50 in experiment [1] (setting [5]) is less than 5 µM. For the same compound, in experiment [2] (setting [6]), the EC50 was less than 5 µM.

As to `O=C(c1cccc(C(F)(F)F)c1)N1CCCC[C@@H]1CNc1nc(-c2c[nH]c3ncc(Cl)cc23)ncc1F` [Compound 210, (R)-(2-((2-(5-chloro-1H-pyrrolo[2,3-b]pyridin-3-yl)-5-fluoropyrimidin-4-ylamino)methyl)piperidin-1-yl)(3-(trifluoromethyl)phenyl)methanone], the IC50 in experiment [1] (setting [5]) was greater than 20 µM. Further, the concentration for a half-maximal effect (EC50) in experiment [2] (setting [6]) fell in the range of 5 to 10 µM.

On to `CC(C)(C)OC(=O)N1CCC[C@H](CNc2nc(-c3c[nH]c4ncc(Cl)cc34)ncc2F)C1` [Compound 15, (R)-tert-butyl 3-((2-(5-chloro-1H-pyrrolo[2,3-b]pyridin-3-yl)-5-fluoropyrimidin-4-ylamino)methyl)piperidine-1-carboxylate], for which the IC50 in experiment [1] (setting [5]) is 5 to 20 µM. Also, in experiment [2] (setting [6]), the concentration giving a half-maximal response (EC50) is less than 5 µM.

On to `COCCNC(=O)C(C)(C)N1CCC[C@H](Nc2nc(-c3c[nH]c4ncc(Cl)cc34)ncc2F)C1` [Compound 601], for which the IC50 in experiment [1] (setting [3]) is less than 5 µM. Besides, the EC50 in experiment [2] (setting [4]) was less than 5 µM.

Turning to `O=C(O)CC1(CC(=O)N2CCC[C@H](CNc3nc(-c4c[nH]c5ncc(Cl)cc45)ncc3F)C2)CCCC1` [Compound 81, (R)-2-(1-(2-(3-((2-(5-chloro-1H-pyrrolo[2,3-b]pyridin-3-yl)-5-fluoropyrimidin-4-ylamino)methyl)piperidin-1-yl)-2-oxoethyl)cyclopentyl)ethanoic acid], the half-inhibitory concentration (IC50) in experiment [1] (setting [5]) was less than 5 µM. In addition, the EC50 in experiment [2] (setting [6]) is less than 5 µM.

With `O=S(=O)(C1CC1)N1CCC[C@H](CNc2nc(-c3c[nH]c4ncc(Cl)cc34)ncc2F)C1` [Compound 61, (R)-2-(5-chloro-1H-pyrrolo[2,3-b]pyridin-3-yl)-N-((1-(cyclopropylsulfonyl)piperidin-3-yl)methyl)-5-fluoropyrimidin-4-amine], the IC50 in experiment [1] (setting [5]) was less than 5 µM. In addition, the EC50 in experiment [2] (setting [6]) was less than 5 µM.

For the compound `COCCC(=O)N[C@@H]1CCC[C@H](Nc2nc(-c3c[nH]c4ncc(Cl)cc34)ncc2F)C1` [Compound 611], the IC50 in experiment [1] (setting [3]) is less than 5 µM. Further, the EC50 in experiment [2] (setting [4]) is less than 5 µM.

As for `O=S(=O)(c1ccccc1)N1CCC[C@H](CNc2nc(-c3c[nH]c4ncc(Cl)cc34)ncc2F)C1` [Compound 87, (R)-2-(5-chloro-1H-pyrrolo[2,3-b]pyridin-3-yl)-5-fluoro-N-((1-(phenylsulfonyl)piperidin-3-yl)methyl)pyrimidin-4-amine], the half-inhibitory concentration (IC50) in experiment [1] (setting [5]) is less than 5 µM. Further, the EC50 in experiment [2] (setting [6]) is less than 5 µM.

Regarding `CN1C[C@@]2(CCC[C@H](Nc3nc(-c4c[nH]c5ncc(Cl)cc45)ncc3F)C2)OC1=O` [Compound 971, (5S,7S)-7-(2-(5-chloro-1H-pyrrolo[2,3-b]pyridin-3-yl)-5-fluoropyrimidin-4-ylamino)-3-methyl-1-oxa-3-azaspiro[4.5]decan-2-one], in experiment [1] (setting [15]), the half-maximal inhibitory concentration (IC50) is less than 5 µM. Besides, in experiment [2] (setting [16]), the EC50 was less than 5 µM.

On to `Fc1cnc(-c2c[nH]c3ncc(Cl)cc23)nc1NC1CCCN(CC2CCCOC2)C1` (stereo not drawn) [Compound 676], for which the half-inhibitory concentration (IC50) in experiment [1] (setting [13]) is less than 5 µM. Moreover, the concentration giving a half-maximal response (EC50) in experiment [2] (setting [14]) is less than 5 µM.

In the case of `CC1(C(=O)O)CCCCC1Nc1nc(-c2c[nH]c3ncc(F)cc23)ncc1F` (stereo not drawn) [Compound 678], the IC50 in experiment [1] (setting [13]) is less than 5 µM. Besides, in experiment [2] (setting [14]), the concentration for a half-maximal effect (EC50) was less than 5 µM.

Take `O=C(O)[C@H]1C(Nc2nc(-c3c[nH]c4ncc(Cl)cc34)ncc2F)[C@H]2CC[C@@H]1C2` (mixture of isomers) [Compound 947]: the 50% inhibitory concentration (IC50) in experiment [1] (setting [15]) was less than 5 µM. For the same compound, in experiment [2] (setting [16]), the EC50 is less than 5 µM.

For the compound `CC(=O)N1CCC[C@H](Nc2nc(-c3c[nH]c4ncc(Cl)cc34)ncc2F)C1` [Compound 434], the concentration for half-maximal inhibition (IC50) in experiment [1] (setting [11]) was less than 5 µM. In addition, the EC50 in experiment [2] (setting [12]) is less than 5 µM.

For `COC(=O)NC1CCCC(Nc2nc(-c3c[nH]c4ncc(Cl)cc34)nc(C(C)(C)C)c2F)C1` (stereo not drawn) [Compound 688], the half-inhibitory concentration (IC50) in experiment [1] (setting [13]) was less than 5 µM. In experiment [2] (setting [14]), the EC50 was less than 5 µM.

`Fc1cnc(-c2c[nH]c3ncc(Cl)cc23)nc1NC1CCCN(CC2CCOCC2)C1` (stereo not drawn) [Compound 621]: the IC50 in experiment [1] (setting [7]) is less than 5 µM. The EC50 in experiment [2] (setting [8]) was less than 5 µM.

In the case of `CCOC(=O)NC1CCCC(Nc2nc(-c3c[nH]c4ncc(Cl)cc34)ncc2F)C1` (stereo not drawn) [Compound 700], the IC50 in experiment [1] (setting [13]) is less than 5 µM. Moreover, the half-maximal effective concentration (EC50) in experiment [2] (setting [14]) is less than 5 µM.

For the compound `O=C1CC2(CCC[C@H](Nc3nc(-c4c[nH]c5ncc(Cl)cc45)ncc3F)C2)CN1` (stereo partly drawn) [Compound 969, (7S)-7-(2-(5-chloro-1H-pyrrolo[2,3-b]pyridin-3-yl)-5-fluoropyrimidin-4-ylamino)-2-azaspiro[4.5]decan-3-one], the half-inhibitory concentration (IC50) in experiment [1] (setting [15]) was less than 5 µM. Further, the EC50 in experiment [2] (setting [16]) is less than 5 µM.

For the origin of these results see US8829007B2 (priority 2009, dated 2014).
